Measured values published in PubChem BioAssay (NCI).
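Exposure lasted 48 hours, with cells grown in 96-well plates and compounds tested at five concentrations. Here, GI50 denotes the concentration required for 50% inhibition of growth. TGI denotes the concentration required for complete inhibition of growth.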

Experiments:
Assay in all cases: NCI tumour cell line growth inhibition, 48 h
EKVX NSCLC = test system: EKVX NSCLC
SF-539 CNS = test system: SF-539 CNS
COLO 205 colon = test system: COLO 205 colon
RXF 393 renal = test system: RXF 393 renal
SK-OV-3 ovarian = test system: SK-OV-3 ovarian
TK-10 renal = test system: TK-10 renal
U251 CNS = test system: U251 CNS
OVCAR-4 ovarian = test system: OVCAR-4 ovarian
DU-145 prostate = test system: DU-145 prostate
SNB-75 CNS = test system: SNB-75 CNS

| Compound | GI50 (EKVX NSCLC) [µM] | TGI (EKVX NSCLC) [µM] | GI50 (SF-539 CNS) [µM] | TGI (SF-539 CNS) [µM] | GI50 (COLO 205 colon) [µM] | TGI (COLO 205 colon) [µM] | GI50 (RXF 393 renal) [µM] | TGI (RXF 393 renal) [µM] | GI50 (SK-OV-3 ovarian) [µM] | TGI (SK-OV-3 ovarian) [µM] | GI50 (TK-10 renal) [µM] | TGI (TK-10 renal) [µM] | GI50 (U251 CNS) [µM] | TGI (U251 CNS) [µM] | GI50 (OVCAR-4 ovarian) [µM] | TGI (OVCAR-4 ovarian) [µM] | GI50 (DU-145 prostate) [µM] | TGI (DU-145 prostate) [µM] | GI50 (SNB-75 CNS) [µM] | TGI (SNB-75 CNS) [µM] |
| --- | --- | --- | --- | --- | --- | --- | --- | --- | --- | --- | --- | --- | --- | --- | --- | --- | --- | --- | --- | --- |
| [C-]#[O+].[C-]#[O+].[C-]#[O+].[C-]#[O+].[Ir].[Ir].[O-]c1ccc2ccccc2c1C=Nc1ccc(N=Cc2c([O-])ccc3ccccc23)cc1 | > 100 | > 100 | > 100 | > 100 | > 100 | > 100 | > 100 | > 100 | > 100 | > 100 | > 100 | > 100 | > 100 | > 100 | > 100 | > 100 | – | – | – | – |
| CCN(CCNc1ccc(C)c2sc3cc(Cl)ccc3c(=O)c12)CC(C)O (stereo not given) | 2.28 | 7.3 | 1.59 | 2.95 | 1.72 | 3.24 | – | – | 1.76 | 3.44 | 1.51 | 2.91 | 1.94 | 4.24 | 4.92 | 24.9 | 3.87 | 18.2 | 1.75 | 3.57 |
| Cc1ccc(S(=O)(=O)NNC(=O)c2sc(-c3nc(C)c(C(=O)NNS(=O)(=O)c4ccc(C)cc4)s3)nc2C)cc1 | – | > 100 | – | > 100 | – | > 100 | – | > 100 | – | > 100 | – | > 100 | – | > 100 | – | – | – | – | – | > 100 |
| CC1CC2C(=O)N(c3ccccc3)C(=O)C2c2c1c1ccccc1n2Cc1ccccc1 (stereo not given) | – | > 100 | – | > 100 | – | > 100 | – | – | – | > 100 | – | – | – | – | – | > 100 | – | – | – | – |
| N#C/C(=C1\NN=C(N)C(c2ccc(Cl)cc2)=C1O)c1ccc(Cl)cc1 | – | > 100 | – | > 100 | – | > 100 | – | > 100 | – | > 100 | – | > 100 | – | > 100 | – | > 100 | – | – | – | > 100 |
| O=C(O)CCSCCCN1C(=O)c2ccccc2C1=O | – | > 100 | – | > 100 | – | > 100 | – | > 100 | – | > 100 | – | > 100 | – | > 100 | – | > 100 | – | – | – | > 100 |
| NC(=NC1CCCCCCC1)c1ccc(N2CCN(c3ccc(C(N)=NC4CCCCCCC4)cc3)CC2)cc1 | – | – | – | – | 13.3 | 39.3 | – | – | 15.2 | 34.9 | 10.9 | 34.2 | 2.96 | 15.3 | 24.6 | > 100 | 1.94 | 12.6 | 3.7 | 15.7 |
| O=C1OC(CC(=O)c2ccc(Cl)cc2Cl)C(Cl)=C1Cl (stereo not given) | – | > 76.9 | – | 44.9 | – | 52.6 | – | 36.3 | – | > 63.4 | – | > 79 | – | > 72.8 | – | > 58.4 | – | – | – | > 61.1 |
| COc1ccc(-c2nnc(SCC(=O)Nc3ccc(/C(C)=N\O)cc3)n2-c2ccccc2)cc1OC | – | – | 4.77 | 38.9 | > 100 | > 100 | 2.56 | 7.11 | 2.73 | 13.7 | 11.3 | 52.7 | 3.61 | 19.6 | > 100 | > 100 | 24.9 | > 100 | – | – |
| Cc1ccc(NC(=O)c2cc3ccccc3c(N=Nc3ccccc3O)c2O)c(C)c1 | – | 17.3 | – | – | – | 11.5 | – | 19.4 | – | 16.7 | – | 24.5 | – | – | – | 11.6 | – | – | – | 2.5 |
| Cc1cccc(NC(=O)c2cc3cc(N=Nc4ccccc4Cl)ccc3oc2=O)c1 | – | > 100 | – | 94.9 | – | > 100 | – | 83.2 | – | > 100 | – | 86.2 | – | > 100 | – | > 100 | – | – | – | > 100 |
| O=C(/C=C/c1ccc(Cl)c(Cl)c1)c1ccc(F)cc1 | – | 55.3 | – | 38.2 | – | 52 | – | – | – | 83.5 | – | 94.7 | – | 25.7 | – | 51.1 | – | – | – | 58.3 |
| Cc1cc(C)c2c(c1)Nc1ccccc1P2c1ccccc1 (stereo not given) | – | 91.1 | – | – | – | > 100 | – | > 100 | – | > 100 | – | > 100 | – | > 100 | – | > 100 | – | – | – | 78.5 |
| Nc1c(Br)c(=O)[nH]c(=O)n1COCCO | – | – | – | > 100 | – | > 100 | – | > 100 | – | – | – | > 100 | – | > 100 | – | > 100 | – | – | – | > 100 |
| O=c1c2cc(Br)ccc2nc(-c2ccccc2Cl)n1NCC1(O)OCC(O)C(O)C1O (stereo not given) | – | > 100 | – | – | – | > 100 | – | > 100 | – | > 100 | – | – | – | > 100 | – | > 100 | – | – | – | > 100 |
| N#Cc1cccc(C(=O)Nc2cccc(NC(=O)c3cccc(C#N)c3)c2)c1 | > 100 | > 100 | 57.7 | > 100 | > 100 | > 100 | – | – | > 100 | > 100 | 52.5 | > 100 | 69.3 | > 100 | > 100 | > 100 | 66.6 | > 100 | > 100 | > 100 |
| CC(C)C[C@H](NC(=O)[C@H]1O[C@@H]1C(=O)O)C(=O)NCCc1ccc(O)cc1 | > 100 | > 100 | > 100 | > 100 | > 100 | > 100 | > 100 | > 100 | > 100 | > 100 | > 100 | > 100 | > 100 | > 100 | – | – | > 100 | > 100 | > 100 | > 100 |
| Nc1ccn(CCO)c(=O)n1 | – | > 100 | – | > 100 | – | > 100 | – | > 100 | – | > 100 | – | > 100 | – | > 100 | – | > 100 | – | – | – | > 100 |
